Measured values taken from the supplement of paper PMC11150407.

What was measured:
Test in all cases: area under dose-response viability curve (log dose) (AUC (arbitrary)); higher = less sensitive
Conditions in all cases: 72 h
Daunorubicine = compound: COc1cccc2c1C(=O)c1c(O)c3c(c(O)c1C2=O)C[C@@](O)(C(C)=O)C[C@@H]3O[C@H]1C[C@H](N)[C@H](O)[C@H](C)O1 [Daunorubicine]
Protocol: (§1)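 Primary AML blasts from patients (3q26 EVI1-high and other AML) were treated for 72 h with a dose series of each drug. Viability was measured with an ATP-based CellTiter-Glo assay. The area under the curve of the log-transformed dose-response data was computed in GraphPad Prism; a lower AUC means greater sensitivity.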

Vincristine = compound: CC[C@]1(O)C[C@H]2CN(CCc3c([nH]c4ccccc34)[C@@](C(=O)OC)(c3cc4c(cc3OC)N(C=O)[C@H]3[C@@](O)(C(=O)OC)[C@H](OC(C)=O)[C@]5(CC)C=CCN6CC[C@]43[C@@H]65)C2)C1 [Vincristine]
Protocol: as §1

AR-42 = compound: CC(C)[C@H](C(=O)Nc1ccc(C(=O)NO)cc1)c1ccccc1 [AR-42]
Protocol: as §1

Entinostat = compound: Nc1ccccc1NC(=O)c1ccc(CNC(=O)OCc2cccnc2)cc1 [Entinostat]
Protocol: as §1

Methotrexate = compound: CN(Cc1cnc2nc(N)nc(N)c2n1)c1ccc(C(=O)N[C@@H](CCC(=O)O)C(=O)O)cc1 [Methotrexate]
Protocol: as §1

Belinostat = compound: O=C(/C=C/c1cccc(S(=O)(=O)Nc2ccccc2)c1)NO [Belinostat]
Protocol: as §1

Test System	area under dose-response viability curve (Daunorubicine)	area under dose-response viability curve (Vincristine)	area under dose-response viability curve (AR-42)	area under dose-response viability curve (Entinostat)	area under dose-response viability curve (Methotrexate)	area under dose-response viability curve (Belinostat)
PR#002 (EVI1 status: EVI1High)	110	179	132	145	232	179
PR#003 (EVI1 status: EVI1High)	68	162	112	142	239	156
PR#004 (EVI1 status: EVI1High)	63.5	171	78.8	84.7	237	121
PR#005 (EVI1 status: EVI1High)	87.5	156	156	107	198	138
PR#006 (EVI1 status: EVI1High)	57.7	136	120	120	248	138
PR#007 (EVI1 status: EVI1High)	110	186	163	172	245	157
PR#008 (EVI1 status: EVI1High)	15	116	55.7	82.3	195	81.8
PR#010 (EVI1 status: EVI1Low)	93.9	172	121	147	256	177
PR#011 (EVI1 status: EVI1Low)	132	196	188	200	226	209
PR#012 (EVI1 status: EVI1Low)	120	89.8	131	139	218	192
PR#013 (EVI1 status: EVI1Low)	68.1	193	130	153	233	169
PR#014 (EVI1 status: EVI1Low)	63.9	198	128	133	248	195
PR#015 (EVI1 status: EVI1Low)	37	128	149	145	248	227
PR#016 (EVI1 status: EVI1Low)	104	152	148	159	270	156
PR#017 (EVI1 status: EVI1Low)	89.5	204	163	191	237	160
PR#018 (EVI1 status: EVI1Low)	101	204	184	211	236	189

Test System	area under dose-response viability curve (Daunorubicine)	area under dose-response viability curve (Vincristine)	area under dose-response viability curve (AR-42)	area under dose-response viability curve (Entinostat)	area under dose-response viability curve (Methotrexate)	area under dose-response viability curve (Belinostat)
PR#019 (EVI1 status: EVI1Low)	128	203	208	232	245	225
PR#020 (EVI1 status: EVI1Low)	61.9	128	130	182	248	246
PR#021 (EVI1 status: EVI1Low)	122	195	189	215	241	202
PR#022 (EVI1 status: EVI1Low)	59.5	175	140	185	244	161
PR#023 (EVI1 status: EVI1High)	138	140	139	162	240	165
PR#024 (EVI1 status: EVI1High)	66.1	97	106	167	249	122
PR#025 (EVI1 status: EVI1Low)	77.4	214	178	256	247	197
PR#026 (EVI1 status: EVI1Low)	85.1	90.2	155	205	241	189
PR#027 (EVI1 status: EVI1Low)	63.1	186	158	197	262	164
PR#028 (EVI1 status: EVI1Low)	142	116	164	198	252	182
PR#029 (EVI1 status: EVI1Low)	25.4	46.3	167	213	229	221
PR#030 (EVI1 status: EVI1Low)	88.5	147	158	237	233	180
PR#031 (EVI1 status: EVI1Low)	34.9	129	189	229	233	204
PR#032 (EVI1 status: EVI1Low)	58	92.1	170	144	258	148
PR#033 (EVI1 status: EVI1Low)	36.2	147	154	183	226	178
PR#034 (EVI1 status: EVI1Low)	192	202	142	195	233	160
